Data as given in patent publication JP2014001205A, “動物の寄生虫防除剤” (Nissan Chemical Corp, priority 2012, dated 2014).

Columns and labels:
[1] = test system: cat flea (Ctenocephalides felis) adults [ネコノミ(Ctenocephalides felis)成虫]; experiment: Efficacy test against cat flea (Test Example 1), glass container film contact; assay type: in vivo; conditions: 96 h, 10μg/cm2, 5 adults (mixed sex), 25℃, 4 days, duplicate, read-out: efficacy (number of insects with abnormal behaviour due to compound / number released × 100)
[2] = test system: American dog tick (Dermacentor variabilis) first nymphs [American dog tick(Dermacentor variabilis)第1若虫]; experiment: Efficacy test against American dog tick (Test Example 2), glass container film contact; assay type: in vivo; conditions: 96 h, 10μg/cm2, 5 first nymphs (mixed sex), 25℃, 4 days, duplicate, read-out: efficacy (number with abnormal behaviour due to compound / number released × 100)

Compound	pest or weed control at 10 µg/cm2 [1] [%]	pest or weed control at 10 µg/cm2 [2] [%]
CCN(C(=O)C=CSC)c1cn(-c2cccnc2)nc1Cl (single isomer, unassigned) [1−071]	≥ 80	≥ 80
CSC[C@@H](C)C(=O)N(C)c1cn(-c2cccnc2)nc1Cl [1−039(S)−(−)]	≥ 80	≥ 80
CCN(C(=O)[C@H](C)CS(C)(=O)=O)c1cn(-c2cccnc2)nc1Cl [1−050(S)−(+)]	≥ 80	≥ 80
CCN(C(=O)CSC)c1cn(-c2cccnc2)nc1Cl [1−079]	≥ 80	≥ 80
CCN(C(=O)CS(C)(=O)=O)c1cn(-c2cccnc2)nc1Cl [1−080]	≥ 80	≥ 80
CCN(C(=O)COC(C)=O)c1cn(-c2cccnc2)nc1Cl [1−082]	≥ 80	≥ 80
CCCSC(C)C(=O)N(CC)c1cn(-c2cccnc2)nc1Cl (centres unmarked) [1−246]	≥ 80	≥ 80
CCc1nn(-c2cccnc2)cc1NC(=O)OC(C)(C)C [1−435]	≥ 80	≥ 80
CCCC(C)C(=O)N(CC)c1cn(-c2cccnc2)nc1Cl (centres unmarked) [1−483]	≥ 80	≥ 80
CCSC(C)C(=Nc1cn(-c2cccnc2)nc1Cl)SC (centres unmarked) [3−006, メチル N−3−クロロ−1−(ピリジン−3−イル)−1H−ピラゾール−4−イル−2−(エチルチオ)プロパンイミドチオエート]	≥ 80	
Cc1c(NC(=O)OC(C)(C)C)cnn1-c1cccnc1 [5−001, tert−ブチル 5−メチル−1−(ピリジン−3−イル)−1H−ピラゾール−4−イルカーバメート]	≥ 80	
